pIC50: −log10 of the molar value.
What was measured:
Cholinesterase [1] = biological target: Cholinesterase (Homo sapiens, UniProt P06276); experiment: Inhibition of human BChE using acetylthiocholine iodide or butyrylthiocholine iodide as substrate preincubated for 5 mins followed by substrate addition by Ellman's method
Cholinesterase [2] = biological target: Cholinesterase (Equus caballus, UniProt P81908); experiment: Inhibition of horse serum BChE using acetylthiocholine iodide or butyrylthiocholine iodide as substrate preincubated for 5 mins followed by substrate addition by Ellman's method
[3] = n-octanol-water partition coefficient, log P of the compound by HPLC analysis; format: physicochemical
[4] = Permeability of compound incubated for 18 hrs by PAMPA-BBB assay; format: ADME; details: read-out: permeability
SH-SY5Y [5] = experiment: Neuroprotective activity against GA-induced cell damage in human SH-SY5Y cells assessed as survival rate at 5 uM pretreated for 2 hrs followed by GA addition and measured after 24 hrs by MTT assay; format: functional
SH-SY5Y [6] = experiment: Cytotoxicity against human SH-SY5Y cells assessed as reduction in cell viability at 10 uM by MTT assay; format: toxicity, cell-based
PC-12 [7] = experiment: Cytotoxicity against rat PC-12 cells assessed as reduction in cell viability at 10 uM by MTT assay; format: toxicity, cell-based; details: pc-12, 10 µM
[8] = Cytotoxicity against mouse BV-2 cells assessed as cell survival rate at 10 uM by MTT assay; format: toxicity, cell-based; details: read-out: Activity
[9] = Cytotoxicity against mouse HT-22 cells assessed as cell survival rate at 10 uM by MTT assay; format: toxicity, cell-based; details: read-out: Activity
[10] = Cytotoxicity against human SH-SY5Y cells assessed as cell survival rate at 10 uM by MTT assay; format: toxicity, cell-based; details: read-out: Activity
HT-22 = experiment: Cytotoxicity against mouse HT-22 cells assessed as reduction in cell viability at 10 uM by MTT assay; format: toxicity, cell-based; details: ht-22, 10 µM
[11] = Cytotoxicity against rat PC-12 cells assessed as cell survival rate at 10 uM by MTT assay; format: toxicity, cell-based; details: read-out: Activity
BV-2 = experiment: Cytotoxicity against mouse BV-2 cells assessed as reduction in cell viability at 10 uM by MTT assay; format: toxicity, cell-based; details: bv-2, 10 µM
SH-SY5Y [12] = experiment: Neuroprotective activity against amyloid beta (1 to 42)-induced cell damage in human SH-SY5Y cells assessed as cell survival at 2 uM pretreated for 2 hrs followed by amyloid beta (1 to 42) addition and measured after 24 hrs by MTT assay; format: functional; details: time 26 hrs, read-out: Activity
SH-SY5Y [13] = experiment: Neuroprotective activity against amyloid beta (1 to 42)-induced cell damage in human SH-SY5Y cells assessed as cell survival rate at 25 uM pretreated for 2 hrs followed by amyloid beta (1 to 42) addition and measured after 24 hrs by MTT assay; format: functional; details: time 26 hrs
SH-SY5Y [14] = experiment: Neuroprotective activity against amyloid beta (1 to 42)-induced cell damage in human SH-SY5Y cells assessed as cell survival at 5 uM pretreated for 2 hrs followed by amyloid beta (1 to 42) addition and measured after 24 hrs by MTT assay; format: functional; details: time 26 hrs, read-out: Activity
PC-12 [15] = experiment: Neuroprotective activity against H2O2-induced cell damage in rat PC-12 cells assessed as survival rate at 5 to 10 uM pretreated for 2 hrs followed by H2O2 addition and measured after 24 hrs by MTT assay; format: functional; details: dose 5-10 µM, time 26 hrs

Sequence of Cholinesterase (Homo sapiens, UniProt P06276) (P06276 whole entry): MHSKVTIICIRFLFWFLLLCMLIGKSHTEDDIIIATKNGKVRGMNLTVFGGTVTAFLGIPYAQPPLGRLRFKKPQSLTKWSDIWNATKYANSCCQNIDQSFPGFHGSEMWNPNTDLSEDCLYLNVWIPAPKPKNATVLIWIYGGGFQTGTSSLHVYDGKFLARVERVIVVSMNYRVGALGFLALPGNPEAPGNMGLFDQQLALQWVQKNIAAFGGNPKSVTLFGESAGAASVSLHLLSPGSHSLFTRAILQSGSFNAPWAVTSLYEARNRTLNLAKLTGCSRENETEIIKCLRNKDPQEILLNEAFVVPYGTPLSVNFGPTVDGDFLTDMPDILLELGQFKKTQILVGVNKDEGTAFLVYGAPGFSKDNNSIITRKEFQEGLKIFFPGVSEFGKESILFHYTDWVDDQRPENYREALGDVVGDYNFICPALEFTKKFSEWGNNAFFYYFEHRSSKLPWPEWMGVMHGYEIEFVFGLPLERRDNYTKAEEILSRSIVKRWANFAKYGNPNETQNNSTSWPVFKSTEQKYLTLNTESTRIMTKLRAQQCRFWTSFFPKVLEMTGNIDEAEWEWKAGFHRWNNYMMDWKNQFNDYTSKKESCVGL
Sequence of Cholinesterase (Equus caballus, UniProt P81908) (P81908 whole entry): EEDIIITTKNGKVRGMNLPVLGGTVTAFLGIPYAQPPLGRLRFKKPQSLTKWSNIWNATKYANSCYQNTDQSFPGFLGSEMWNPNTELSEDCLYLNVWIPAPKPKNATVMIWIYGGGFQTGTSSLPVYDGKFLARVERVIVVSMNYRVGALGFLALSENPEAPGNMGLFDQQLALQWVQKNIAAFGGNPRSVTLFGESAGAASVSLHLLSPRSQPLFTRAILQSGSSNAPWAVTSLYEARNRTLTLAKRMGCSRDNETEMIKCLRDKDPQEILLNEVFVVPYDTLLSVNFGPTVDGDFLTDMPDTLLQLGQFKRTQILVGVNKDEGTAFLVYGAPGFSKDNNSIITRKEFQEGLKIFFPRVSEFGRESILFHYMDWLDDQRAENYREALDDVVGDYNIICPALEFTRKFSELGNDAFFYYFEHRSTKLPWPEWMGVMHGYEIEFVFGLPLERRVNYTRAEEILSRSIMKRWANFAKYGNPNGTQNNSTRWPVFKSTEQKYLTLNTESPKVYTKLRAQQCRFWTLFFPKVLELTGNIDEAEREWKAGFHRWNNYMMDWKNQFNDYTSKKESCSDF

## CCN(CC)Cc1ccccc1CNC(=O)c1ccc(Br)c(NC(=O)c2ccc(F)cc2)c1
Cholinesterase [1]
  pIC50: 8.59
Cholinesterase [2]
  pIC50: 8.62

## CCN(CC)Cc1ccccc1CNC(=O)c1cccc(NC(=O)c2ccc(F)cc2)c1C
[3]
  logP: 1.02
Cholinesterase [1]
  pIC50: 9.59
[4]
  Papp at 18 h: 11.4 ×10⁻⁶ cm/s
Cholinesterase [2]
  pIC50: 9.85

## CCN(CC)Cc1ccccc1CNC(=O)c1cccc(NC(=O)c2ccc(I)cc2)c1
Cholinesterase [1]
  pIC50: 9.96
[4]
  Papp at 18 h: 10.1 ×10⁻⁶ cm/s
Cholinesterase [2]
  pIC50: 9.47

## CCN(CC)Cc1ccc(CNC(=O)c2cccc(NC(=O)c3cccs3)c2)cc1
Cholinesterase [1]
  pIC50: 5.46
Cholinesterase [2]
  pIC50: 5.23

## CN(C)Cc1ccccc1NC(=O)c1cccc(NC(=O)c2cccs2)c1
Cholinesterase [1]
  pIC50: 5.91

## CCN(CC)Cc1ccccc1CNC(=O)c1cccc(NC(=O)c2ccccc2F)c1
Cholinesterase [1]
  pIC50: 8.30
Cholinesterase [2]
  pIC50: 8.18

## CCN(CC)Cc1ccccc1CNC(=O)c1cc(C#N)cc(NC(=O)c2ccc(F)cc2)c1
Cholinesterase [1]
  pIC50: 8.50
Cholinesterase [2]
  pIC50: 8.82

## CCN(CC)Cc1ccccc1CNC(=O)c1cccc(NC(=O)c2ccc(Cl)cc2)c1
[3]
  logP: 2.67
Cholinesterase [1]
  pIC50: 9.12
[4]
  Papp at 18 h: 6.02 ×10⁻⁶ cm/s
Cholinesterase [2]
  pIC50: 8.99

## CCN(CC)Cc1ccccc1CNC(=O)c1cc(Br)cc(NC(=O)c2ccc(F)cc2)c1
[3]
  logP: 2.04
Cholinesterase [1]
  pIC50: 9.24
[4]
  Papp at 18 h: 6.93 ×10⁻⁶ cm/s
Cholinesterase [2]
  pIC50: 9.38
SH-SY5Y [5]
  Activity: 70%

## CCN(CC)Cc1ccccc1CNC(=O)c1cccc(NS(=O)(=O)c2cccs2)c1
Cholinesterase [1]
  pIC50: 5.58
Cholinesterase [2]
  pIC50: 6.46

## CCN(CC)Cc1ccccc1NC(=O)c1cccc(NC(=O)c2cccs2)c1
Cholinesterase [1]
  pIC50: 6.27

## Cc1ccccc1NC(=O)c1cccc(NC(=O)c2cccs2)c1
Cholinesterase [1]
  pIC50: 4.96
Cholinesterase [2]
  pIC50: 4.89

## CCN(CC)Cc1ccccc1CNC(=O)c1cccc(NC(=O)c2ccc(OC)cc2)c1
SH-SY5Y [6]
  Activity: Non-Toxic
PC-12 [7]
  Activity: Non-Toxic
[8]
  viability at 10 µM: > 70%
[9]
  viability at 10 µM: > 70%
[10]
  viability at 10 µM: > 70%
HT-22
  Activity: Non-Toxic
[11]
  viability at 10 µM: > 70%
BV-2
  Activity: Non-Toxic

## CCN(CC)Cc1ccccc1CNC(=O)c1cc(NC(=O)c2ccc(F)cc2)cc(OC)c1
Cholinesterase [1]
  pIC50: 6.87
Cholinesterase [2]
  pIC50: 9.09

## CCCN(CCC)Cc1ccccc1NC(=O)c1cccc(NC(=O)c2cccs2)c1
Cholinesterase [1]
  pIC50: 6.06
Cholinesterase [2]
  pIC50: 6.92

## CCN(CC)Cc1ccccc1CNC(=O)c1cccc(OC(=O)c2cccs2)c1
Cholinesterase [1]
  pIC50: 6.88
Cholinesterase [2]
  pIC50: 6.80

## CCN(CC)Cc1ccccc1CNC(=O)c1cccc(NC(=O)c2c(F)c(F)c(F)c(F)c2F)c1
Cholinesterase [1]
  pIC50: 8.89
Cholinesterase [2]
  pIC50: 9.32

## CCN(CC)Cc1ccccc1CNC(=O)c1cc(NC(=O)c2ccc(F)cc2)cc(C(F)(F)F)c1
Cholinesterase [1]
  pIC50: 8.06
Cholinesterase [2]
  pIC50: 8.87

## CCN(CC)Cc1ccccc1CNC(=O)c1cccc(NC(=O)c2ccco2)c1
SH-SY5Y [6]
  Activity: Non-Toxic
PC-12 [7]
  Activity: Non-Toxic
[8]
  viability at 10 µM: > 70%
[9]
  viability at 10 µM: > 70%
[10]
  viability at 10 µM: > 70%
Cholinesterase [1]
  pIC50: 9.59
HT-22
  Activity: Non-Toxic
[4]
  Papp at 18 h: 6.89 ×10⁻⁶ cm/s
[11]
  viability at 10 µM: > 70%
BV-2
  Activity: Non-Toxic

## CCN(CC)Cc1ccccc1CNC(=O)c1ccc(NC(=O)c2ccc(F)cc2)cc1
Cholinesterase [1]
  pIC50: 8.28
Cholinesterase [2]
  pIC50: 8.30

## CN(C)Cc1ccccc1CNC(=O)c1cccc(NC(=O)c2cccs2)c1
[3]
  logP: 1.93
SH-SY5Y [6]
  Activity: Non-Toxic
PC-12 [7]
  Activity: Non-Toxic
[8]
  viability at 10 µM: > 70%
SH-SY5Y [12]
  viability at 2 µM: 82.6%
[9]
  viability at 10 µM: > 70%
SH-SY5Y [13]
  Activity: 64.12%
[10]
  viability at 10 µM: > 70%
HT-22
  Activity: Non-Toxic
[4]
  Papp at 18 h: 6.82 ×10⁻⁶ cm/s
SH-SY5Y [14]
  viability at 5 µM: 68%
[11]
  viability at 10 µM: > 70%
BV-2
  Activity: Non-Toxic
PC-12 [15]
  Activity: 61.7%

— ChEMBL document CHEMBL5137095, “N-Benzyl Benzamide Derivatives as Selective Sub-Nanomolar Butyrylcholinesterase Inhibitors for Possible Treatment in Advanced Alzheimer's Disease” (J Med Chem, 2022)
